In US20140120083A1, “TREATMENT OF CANCERS USING PI3 KINASE ISOFORM MODULATORS” (INFINITY PHARMACEUTICALS, INC., priority 2012, published 2014):

What was measured:
Assay type in all cases: biochemical
PI3K δ = PI3K δ (Homo sapiens, UniProt O00329); assay: In vitro IC50, PI3K δ; parameters: purchased Upstate
Description: (§1) An exemplary system is PI 3-Kinase (human) HTRF™ Assay from Upstate.

PI3K γ = target: T1, PI3K γ (Homo sapiens, UniProt P48736); assay: In vitro IC50, PI3K γ
T1 construct: purchased Sigma
Description: as §1

PI3K α = target: T2, PI3K α (Homo sapiens, UniProt P42336); assay: In vitro IC50, PI3K α
T2 construct: purchased Upstate
Description: as §1

Sequence of PI3K δ (O00329 whole entry): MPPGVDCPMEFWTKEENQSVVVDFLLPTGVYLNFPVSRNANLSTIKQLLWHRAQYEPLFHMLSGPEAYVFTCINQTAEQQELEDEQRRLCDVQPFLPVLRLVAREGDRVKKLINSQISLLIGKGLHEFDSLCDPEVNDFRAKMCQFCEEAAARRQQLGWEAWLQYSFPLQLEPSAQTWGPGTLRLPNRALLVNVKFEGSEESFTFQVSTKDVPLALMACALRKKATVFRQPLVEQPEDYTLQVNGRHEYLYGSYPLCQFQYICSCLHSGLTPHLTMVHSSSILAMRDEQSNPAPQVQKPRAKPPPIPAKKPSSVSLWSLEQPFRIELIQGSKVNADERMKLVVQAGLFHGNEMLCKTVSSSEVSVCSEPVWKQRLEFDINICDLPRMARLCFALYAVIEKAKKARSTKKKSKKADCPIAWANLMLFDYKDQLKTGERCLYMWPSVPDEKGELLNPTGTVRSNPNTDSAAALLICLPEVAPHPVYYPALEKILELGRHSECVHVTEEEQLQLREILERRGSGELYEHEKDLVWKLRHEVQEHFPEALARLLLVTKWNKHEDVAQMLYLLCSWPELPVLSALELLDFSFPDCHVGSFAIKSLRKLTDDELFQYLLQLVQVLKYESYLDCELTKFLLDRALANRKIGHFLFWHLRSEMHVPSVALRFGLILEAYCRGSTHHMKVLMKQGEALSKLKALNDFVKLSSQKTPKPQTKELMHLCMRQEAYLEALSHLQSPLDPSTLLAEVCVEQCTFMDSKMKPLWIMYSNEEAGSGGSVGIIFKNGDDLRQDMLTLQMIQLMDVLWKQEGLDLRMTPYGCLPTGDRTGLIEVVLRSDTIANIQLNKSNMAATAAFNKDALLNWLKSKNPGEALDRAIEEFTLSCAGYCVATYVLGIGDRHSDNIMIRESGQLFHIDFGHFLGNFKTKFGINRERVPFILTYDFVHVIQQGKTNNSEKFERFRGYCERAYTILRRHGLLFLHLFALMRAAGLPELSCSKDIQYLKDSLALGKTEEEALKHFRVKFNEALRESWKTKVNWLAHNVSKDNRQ
Sequence of PI3K δ (P27986 whole entry partner): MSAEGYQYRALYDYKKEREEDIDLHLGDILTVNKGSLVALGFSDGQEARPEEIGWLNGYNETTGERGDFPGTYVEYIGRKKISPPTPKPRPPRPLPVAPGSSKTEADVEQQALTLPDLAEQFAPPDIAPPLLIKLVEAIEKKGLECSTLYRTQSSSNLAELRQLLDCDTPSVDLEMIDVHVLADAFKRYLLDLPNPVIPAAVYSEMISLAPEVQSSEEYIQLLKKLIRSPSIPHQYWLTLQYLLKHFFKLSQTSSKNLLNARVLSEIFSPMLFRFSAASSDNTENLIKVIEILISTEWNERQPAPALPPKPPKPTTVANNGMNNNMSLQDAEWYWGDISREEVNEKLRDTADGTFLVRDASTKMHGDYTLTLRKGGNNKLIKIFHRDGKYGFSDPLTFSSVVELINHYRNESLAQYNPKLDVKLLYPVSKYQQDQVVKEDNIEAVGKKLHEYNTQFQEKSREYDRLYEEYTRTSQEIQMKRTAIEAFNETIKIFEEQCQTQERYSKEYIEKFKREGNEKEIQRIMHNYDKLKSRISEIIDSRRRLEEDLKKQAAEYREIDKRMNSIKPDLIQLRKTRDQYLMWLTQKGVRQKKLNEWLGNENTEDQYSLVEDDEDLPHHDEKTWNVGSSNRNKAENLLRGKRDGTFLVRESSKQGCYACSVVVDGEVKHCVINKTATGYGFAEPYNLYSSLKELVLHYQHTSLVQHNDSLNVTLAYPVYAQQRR
T2 sequence (P42336 whole entry): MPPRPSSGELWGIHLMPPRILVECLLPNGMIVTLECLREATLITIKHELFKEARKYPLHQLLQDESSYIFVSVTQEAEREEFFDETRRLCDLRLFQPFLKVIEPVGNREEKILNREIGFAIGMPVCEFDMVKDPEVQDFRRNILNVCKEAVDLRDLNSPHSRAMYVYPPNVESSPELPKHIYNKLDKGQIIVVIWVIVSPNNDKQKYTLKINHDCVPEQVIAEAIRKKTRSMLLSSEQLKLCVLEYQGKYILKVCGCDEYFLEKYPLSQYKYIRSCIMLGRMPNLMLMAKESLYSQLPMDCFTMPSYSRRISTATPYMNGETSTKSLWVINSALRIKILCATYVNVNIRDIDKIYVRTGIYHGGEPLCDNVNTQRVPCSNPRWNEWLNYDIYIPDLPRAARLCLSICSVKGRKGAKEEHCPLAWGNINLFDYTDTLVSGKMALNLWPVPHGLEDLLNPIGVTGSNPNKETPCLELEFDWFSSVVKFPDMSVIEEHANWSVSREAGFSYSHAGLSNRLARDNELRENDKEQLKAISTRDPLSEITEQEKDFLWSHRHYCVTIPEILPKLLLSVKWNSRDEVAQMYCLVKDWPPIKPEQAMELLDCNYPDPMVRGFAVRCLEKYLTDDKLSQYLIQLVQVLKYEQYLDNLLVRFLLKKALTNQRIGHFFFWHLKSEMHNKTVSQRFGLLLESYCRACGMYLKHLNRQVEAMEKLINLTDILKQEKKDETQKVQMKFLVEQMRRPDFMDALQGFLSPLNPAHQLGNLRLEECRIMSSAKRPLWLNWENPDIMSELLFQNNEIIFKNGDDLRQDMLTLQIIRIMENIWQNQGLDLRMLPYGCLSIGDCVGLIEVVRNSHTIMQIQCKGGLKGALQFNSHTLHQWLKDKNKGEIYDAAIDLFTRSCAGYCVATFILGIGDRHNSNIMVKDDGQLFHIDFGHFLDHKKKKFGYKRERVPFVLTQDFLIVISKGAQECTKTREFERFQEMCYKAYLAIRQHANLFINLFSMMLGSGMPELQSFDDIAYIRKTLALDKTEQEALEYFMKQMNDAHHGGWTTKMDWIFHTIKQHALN
T2 sequence (P27986 whole entry partner): as the sequence (P27986 whole entry partner) above
T1 sequence (P48736 whole entry): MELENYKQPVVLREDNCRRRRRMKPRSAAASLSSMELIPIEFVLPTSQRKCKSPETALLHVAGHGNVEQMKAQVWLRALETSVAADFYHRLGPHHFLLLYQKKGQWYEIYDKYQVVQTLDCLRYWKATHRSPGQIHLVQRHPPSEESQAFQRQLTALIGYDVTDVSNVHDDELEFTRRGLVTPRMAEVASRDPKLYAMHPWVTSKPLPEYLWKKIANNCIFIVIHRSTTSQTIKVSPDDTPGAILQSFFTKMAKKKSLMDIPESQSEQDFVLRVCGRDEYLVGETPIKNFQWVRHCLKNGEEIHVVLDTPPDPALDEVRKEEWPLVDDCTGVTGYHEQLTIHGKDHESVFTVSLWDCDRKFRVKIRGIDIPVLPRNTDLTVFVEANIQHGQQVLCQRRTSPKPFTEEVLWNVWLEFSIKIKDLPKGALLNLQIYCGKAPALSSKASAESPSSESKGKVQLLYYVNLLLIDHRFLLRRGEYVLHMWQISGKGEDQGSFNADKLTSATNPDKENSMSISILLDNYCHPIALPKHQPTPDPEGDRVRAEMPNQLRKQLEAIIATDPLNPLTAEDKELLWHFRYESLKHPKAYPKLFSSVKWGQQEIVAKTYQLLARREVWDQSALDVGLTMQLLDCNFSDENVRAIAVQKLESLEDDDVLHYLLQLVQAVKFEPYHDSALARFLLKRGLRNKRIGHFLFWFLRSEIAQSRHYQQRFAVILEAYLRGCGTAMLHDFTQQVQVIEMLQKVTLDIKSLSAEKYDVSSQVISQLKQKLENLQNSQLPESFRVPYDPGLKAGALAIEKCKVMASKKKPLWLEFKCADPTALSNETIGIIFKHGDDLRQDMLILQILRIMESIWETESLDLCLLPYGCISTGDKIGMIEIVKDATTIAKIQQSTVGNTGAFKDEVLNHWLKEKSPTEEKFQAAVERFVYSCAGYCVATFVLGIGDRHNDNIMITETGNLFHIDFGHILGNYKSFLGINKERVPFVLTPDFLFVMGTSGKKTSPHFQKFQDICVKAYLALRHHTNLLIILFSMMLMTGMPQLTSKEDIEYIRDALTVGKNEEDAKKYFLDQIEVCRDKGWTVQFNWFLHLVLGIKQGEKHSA

Structure (SMILES)	IC50 (PI3K δ) [µM]	IC50 (PI3K γ) [µM]	IC50 (PI3K α) [µM]
CNC(=O)c1nn(Cc2cc3cccc(C)c3c(=O)n2-c2ccccc2)c2ncnc(N)c12 [Compound 309]	< 1	< 10	> 10
Cc1cccc2cc(Cn3nc(C#CC4CC4)c4c(N)ncnc43)n(-c3ccccc3F)c(=O)c12 [Compound 4]	< 1	> 10	–
Nc1ncnc2c1c(I)nn2Cc1cc2cccc(F)c2c(=O)n1-c1ccccc1F [Compound 132]	< 10	–	–
Cc1cccc2cc(C(C)Nc3ncnc4[nH]cnc34)n(CCN3CCCC3)c(=O)c12 (stereo not shown) [Compound 233]	< 0.1	> 10	–
Cc1ccccc1-n1c(Cn2nc(-c3ccc(CN)cc3)c3c(N)ncnc32)cc2cccc(C)c2c1=O [Compound 118]	< 10	–	–
Cc1cccc2cc(Cn3nc(-c4cc(O)cc(F)c4)c4c(N)ncnc43)n(C)c(=O)c12 [Compound 125]	< 0.1	–	–
Cc1cccc2cc([C@H](C)NC(=O)c3cnn4ccccc34)n(-c3ccccc3)c(=O)c12 [Compound 241]	> 10	< 10	> 10
Cc1ccccc1-n1c(Cn2nc(-c3ccc4cc[nH]c4c3)c3c(N)ncnc32)cc2cccc(C)c2c1=O [Compound 50]	< 0.1	< 0.1	> 10
Cc1cccc2cc(C(C)Nc3ncnc4[nH]cnc34)n(C3CCCC3)c(=O)c12 (stereo not shown) [Compound 231]	< 0.1	< 0.1	–
CCn1c(Cn2nc(-c3cccc(O)c3)c3c(N)ncnc32)cc2cccc(C)c2c1=O [Compound 126]	< 0.1	–	–
Cc1cccc2cc([C@@H](C)Nc3ncnc4[nH]cnc34)n(-c3ccccc3)c(=O)c12 [Compound 195]	< 10	< 10	–
Cc1cccc2cc(Cn3nc(C(N)=O)c4c(N)ncnc43)n(-c3ccccc3)c(=O)c12 [Compound 307]	< 1	< 10	–
Nc1ncnc2c1c(-c1cccc(O)c1)nn2Cc1cc2cccc(Cl)c2c(=O)n1C1CC1 [Compound 141]	< 0.1	–	–
CNC(=O)c1cccc(-c2nn(Cc3cc4cccc(C)c4c(=O)n3-c3ccccc3C)c3ncnc(N)c23)c1 [Compound 120]	< 10	–	–
Cc1cccc2cc(C(C)Nc3ncnc4[nH]cnc34)n(C3CCOCC3)c(=O)c12 (stereo not shown) [Compound 234]	< 0.1	< 1	–
Cc1cccnc1-n1c(Cn2nc(I)c3c(N)ncnc32)cc2ccccc2c1=O [Compound 92]	< 10	< 10	–
Cc1cccc2cc(Cn3nc(-c4cc(O)cc(F)c4)c4c(N)ncnc43)n(C3CCOCC3)c(=O)c12 [Compound 128]	< 0.1	–	–
Cc1cccc2cc(Cn3nc(-c4ccc5nc(N)[nH]c5c4)c4c(N)ncnc43)n(-c3ccccc3)c(=O)c12 [Compound 302]	< 0.1	< 0.1	–
Nc1ncnc2c1c(-c1cc(O)cc(F)c1)nn2Cc1cc2cccc(F)c2c(=O)n1-c1ccccc1F [Compound 144]	< 0.1	–	–
CC(C)n1c(Cn2nc(I)c3c(N)ncnc32)cc2cccc(F)c2c1=O [Compound 117]	< 10	–	–
CC(Nc1ncnc2[nH]cnc12)c1cc2ccccc2c(=O)n1C1CCN(C)CC1 (stereo not shown) [Compound 225]	< 1	–	–
Cc1ccccc1-n1c(Cn2nc(C(=O)O)c3c(N)ncnc32)cc2cccc(C)c2c1=O [Compound 297]	< 1	–	–
CC(C)n1c(Cn2nc(-c3cc(O)cc(F)c3)c3c(N)ncnc32)cc2cccc(F)c2c1=O [Compound 134]	< 0.1	–	–
C=Cc1nn(Cc2cc3cccc(C)c3c(=O)n2-c2ccccc2)c2ncnc(N)c12 [Compound 301]	< 0.1	< 1	–
Cc1cccc2cc(Cn3nc(I)c4c(N)ncnc43)n(-c3ccccc3F)c(=O)c12 [Compound 2]	< 0.1	< 1	–
Cc1cccc2cc(Cn3cnc4c(N)ncnc43)n(-c3ccccc3F)c(=O)c12 [Compound 1]	< 10	> 10	–
CNC(=O)c1nn(Cc2cc3cccc(C)c3c(=O)n2-c2ccccc2C)c2ncnc(N)c12 [Compound 305]	< 10	< 10	–
Cc1cccc2cc(C(C)Nc3ncnc4[nH]cnc34)n(-c3ccccc3F)c(=O)c12 (stereo not shown) [Compound 203]	–	–	< 10
Cc1cccc2cc([C@H](C)Nc3ncnc4[nH]cnc34)n(C(C)C)c(=O)c12 [Compound 230]	< 0.1	< 0.1	–
Cc1ccccc1-n1c(Cn2nc(C(F)F)c3c(N)ncnc32)cc2cccc(C)c2c1=O [Compound 306]	< 0.1	< 0.1	–

Other lines, results leading:

IC50 (PI3K δ) [µM]	IC50 (PI3K γ) [µM]	IC50 (PI3K α) [µM]	Structure (SMILES)
< 0.1	< 0.1	–	Cc1cccc2cc([C@H](C)Nc3ncnc4[nH]cnc34)n(-c3ccccc3)c(=O)c12 [Compound 196]
< 0.1	< 10	–	CCc1nn(Cc2cc3cccc(C)c3c(=O)n2-c2ccccc2)c2ncnc(N)c12 [Compound 303]
< 1	< 10	> 10	Cc1cccnc1-n1c(Cn2nc(Br)c3c(N)ncnc32)cc2cccc(C)c2c1=O [Compound 17]
< 1	< 0.1	> 10	COc1ccc(-c2nn(Cc3cc4cccc(C)c4c(=O)n3-c3ccccc3C)c3ncnc(N)c23)cc1 [Compound 45]
< 1	< 1	> 10	CNc1ncc(Cl)c(N[C@@H](C)c2cc3cccc(C)c3c(=O)n2-c2ccccc2)n1 [Compound 250]
< 0.1	< 1	–	Cc1cccc2cc(C(C)Nc3ncnc4[nH]cnc34)n(-c3cccc(F)c3)c(=O)c12 (stereo not shown) [Compound 229]
< 0.1	–	–	CC(C)n1c(Cn2nc(-c3cc(O)cc(F)c3)c3c(N)ncnc32)cc2ccccc2c1=O [Compound 136]
< 1	–	> 10	Cc1ccccc1-n1c(Cn2nc(C#C[C@@H](C)O)c3c(N)ncnc32)cc2ccccc2c1=O [Compound 32]
< 0.1	–	–	CC(C)n1c(Cn2nc(-c3cccc(O)c3)c3c(N)ncnc32)cc2cccc(Cl)c2c1=O [Compound 137]
< 0.1	–	–	CC(C)n1c(Cn2nc(-c3cccc(O)c3)c3c(N)ncnc32)cc2ccccc2c1=O [Compound 135]
< 10	–	–	CC(C)n1c(Cn2nc(I)c3c(N)ncnc32)cc2ccccc2c1=O [Compound 129]
< 1	–	–	Cc1cccc2cc(Cn3nc(-c4cn[nH]c4)c4c(N)ncnc43)n(C3CCN(C)CC3)c(=O)c12 [Compound 226]
> 10	> 10	–	Cc1cccc2cc([C@@H](C)Nc3ncnc4[nH]cnc34)n(C3CC3)c(=O)c12 [Compound 199]
< 0.1	–	–	Cc1cccc2cc(Cn3nc(-c4cccc(O)c4)c4c(N)ncnc43)n(C)c(=O)c12 [Compound 124]
< 1	< 1	–	Cc1cccc2cc(Cn3nc(-c4ccc5nc(N)oc5c4)c4c(N)ncnc43)n(-c3ccccc3)c(=O)c12 [Compound 236]
< 1	–	–	Nc1ncnc2c1c(-c1cccc(O)c1)nn2Cc1cc2cccc(F)c2c(=O)n1-c1ccccc1F [Compound 143]
< 0.1	< 10	–	Cc1cccc2cc(C(C)Nc3ncnc4[nH]cnc34)n(CCN3CCOCC3)c(=O)c12 (stereo not shown) [Compound 232]
< 0.1	–	–	CC(C)n1c(Cn2nc(-c3cc(O)cc(F)c3)c3c(N)ncnc32)cc2cccc(Cl)c2c1=O [Compound 138]
< 0.1	–	–	Nc1ncnc2c1c(I)nn2Cc1cc2cccc(Cl)c2c(=O)n1C1CC1 [Compound 139]
